What is called EC50 is the concentration at which the effect is half-maximal. One may read the AC50 as the concentration at which the activity in the assay is half-maximal. One may read the IC50 as the midpoint of a concentration-inhibition curve.

Active and inactive are the calls of the source.

Results on six compounds are retold here after ChEMBL document CHEMBL1201862, “PubChem BioAssay data set” (2004).

The target of series [1] is Sphingosine 1-phosphate receptor 2 (Homo sapiens, UniProt O95136). Description: Late-stage fluorescence-based dose-response cell-based assay to identify agonists of the Sphingosine 1-Phosphate Receptor 4 (S1P4): Sphingosine 1-Phosphate Receptor 2 (S1P2) counterscreen assay. [Related pubchem assays (depositor defined):AID1509, AID1523, AID1563, AID1686, AID1701, AID1801, AID463107, AID463225, AID504400]. The format is functional.
Sequence of Sphingosine 1-phosphate receptor 2 (O95136 whole entry): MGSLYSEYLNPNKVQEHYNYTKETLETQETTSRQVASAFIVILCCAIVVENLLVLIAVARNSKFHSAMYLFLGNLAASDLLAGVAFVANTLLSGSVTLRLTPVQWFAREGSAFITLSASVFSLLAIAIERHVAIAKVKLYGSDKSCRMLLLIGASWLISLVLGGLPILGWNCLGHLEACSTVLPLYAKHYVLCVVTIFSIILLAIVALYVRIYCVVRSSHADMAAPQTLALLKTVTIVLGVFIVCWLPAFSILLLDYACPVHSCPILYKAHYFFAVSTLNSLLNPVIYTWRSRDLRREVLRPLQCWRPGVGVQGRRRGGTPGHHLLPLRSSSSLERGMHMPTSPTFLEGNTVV

Series [2] has as its target Sphingosine 1-phosphate receptor 4 (Homo sapiens, UniProt O95977). Put plainly: Fluorescence dose response cell-based high throughput screening assay for agonists of the Sphingosine 1-Phosphate Receptor 4 (S1P4). [Related pubchem assays: 1509 (Primary screen.), 1523 (Confirmation screen in triplicates.)]. The class given is functional.
The target in series [3] is T1, Sphingosine 1-phosphate receptor 1 (Homo sapiens, UniProt P21453). Description: Fluorescence-based counterscreen assay for S1P4 agonists: Cell-based dose response high throughput screening assay to identify agonists of the Sphingosine 1-Phosphate Receptor 1 (S1P1). [Related pubchem assays (depositor defined):AID1509, AID1523, AID1801, AID463107, AID463118, AID463119, AID463122, AID463123, AID463129, AID463225, AID504400, AID504460]. The format is functional.
T1 sequence (P21453 whole entry): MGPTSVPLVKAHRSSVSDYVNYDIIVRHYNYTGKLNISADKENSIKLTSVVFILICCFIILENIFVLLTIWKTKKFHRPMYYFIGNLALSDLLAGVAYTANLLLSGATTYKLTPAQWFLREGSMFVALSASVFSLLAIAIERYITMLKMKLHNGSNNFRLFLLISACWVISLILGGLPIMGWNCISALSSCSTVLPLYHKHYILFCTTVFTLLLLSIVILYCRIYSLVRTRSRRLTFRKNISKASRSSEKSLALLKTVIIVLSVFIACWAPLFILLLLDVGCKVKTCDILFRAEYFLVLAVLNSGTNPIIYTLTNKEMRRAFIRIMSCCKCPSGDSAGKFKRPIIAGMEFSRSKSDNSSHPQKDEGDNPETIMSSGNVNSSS

For series [4], the target named is Sphingosine 1-phosphate receptor 3 (Homo sapiens, UniProt Q99500). Description: Late-stage fluorescence-based dose-response cell-based assay to identify agonists of the Sphingosine 1-Phosphate Receptor 4 (S1P4): Sphingosine 1-Phosphate Receptor 3 (S1P3) counterscreen assay. [Related pubchem assays (depositor defined):AID1509, AID1523, AID1563, AID1686, AID1701, AID1801, AID463107, AID463225, AID504400]. The class given is functional. On the technique in general: A counterscreen serves to expose hits that act by an unwanted route or on another target.
Sequence of Sphingosine 1-phosphate receptor 3 (Q99500 whole entry): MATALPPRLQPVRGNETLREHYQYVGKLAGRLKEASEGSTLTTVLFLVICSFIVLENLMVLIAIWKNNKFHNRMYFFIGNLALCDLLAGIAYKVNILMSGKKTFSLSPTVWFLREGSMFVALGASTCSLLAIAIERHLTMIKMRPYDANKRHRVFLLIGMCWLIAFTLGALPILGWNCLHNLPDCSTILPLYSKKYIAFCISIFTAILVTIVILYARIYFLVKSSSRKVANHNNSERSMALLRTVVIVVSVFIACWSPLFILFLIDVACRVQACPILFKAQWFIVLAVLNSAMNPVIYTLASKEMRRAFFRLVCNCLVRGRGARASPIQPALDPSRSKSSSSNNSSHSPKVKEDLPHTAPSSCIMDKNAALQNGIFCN

The target of series [5] is T1, Sphingosine 1-phosphate receptor 1. Description: Late-stage fluorescence-based dose-response cell-based assay to identify agonists of the Sphingosine 1-Phosphate Receptor 4 (S1P4): Sphingosine 1-Phosphate Receptor 1 (S1P1) counterscreen assay. [Related pubchem assays (depositor defined):AID1509, AID1523, AID1563, AID1686, AID1701, AID1801, AID463107, AID463225, AID504400]. The class given is functional.

Series [6] deals with Sphingosine 1-phosphate receptor 5 (Homo sapiens, UniProt Q9H228). Description: Late-stage fluorescence-based dose-response cell-based assay to identify agonists of the Sphingosine 1-Phosphate Receptor 4 (S1P4): Sphingosine 1-Phosphate Receptor 5 (S1P5) counterscreen assay. [Related pubchem assays (depositor defined):AID1509, AID1523, AID1563, AID1686, AID1701, AID1801, AID463107, AID463225, AID504400]. The format is functional.
Sequence of Sphingosine 1-phosphate receptor 5 (Q9H228 whole entry): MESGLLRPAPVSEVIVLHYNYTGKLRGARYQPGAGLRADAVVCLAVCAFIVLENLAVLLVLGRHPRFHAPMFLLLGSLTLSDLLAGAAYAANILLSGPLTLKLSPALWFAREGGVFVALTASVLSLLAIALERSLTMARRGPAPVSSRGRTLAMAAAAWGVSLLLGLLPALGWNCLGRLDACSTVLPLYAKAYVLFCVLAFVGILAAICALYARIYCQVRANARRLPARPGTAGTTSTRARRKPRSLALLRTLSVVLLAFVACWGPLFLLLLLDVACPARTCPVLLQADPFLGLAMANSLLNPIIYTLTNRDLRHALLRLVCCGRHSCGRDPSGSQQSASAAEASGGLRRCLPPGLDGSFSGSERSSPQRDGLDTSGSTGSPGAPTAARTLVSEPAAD

The target in the next series is Cytochrome P450 2D6 (Homo sapiens, UniProt P10635).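 Note: CYP2D6 member of a cytochrome P450 panel assay.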
Sequence of Cytochrome P450 2D6 (P10635 whole entry): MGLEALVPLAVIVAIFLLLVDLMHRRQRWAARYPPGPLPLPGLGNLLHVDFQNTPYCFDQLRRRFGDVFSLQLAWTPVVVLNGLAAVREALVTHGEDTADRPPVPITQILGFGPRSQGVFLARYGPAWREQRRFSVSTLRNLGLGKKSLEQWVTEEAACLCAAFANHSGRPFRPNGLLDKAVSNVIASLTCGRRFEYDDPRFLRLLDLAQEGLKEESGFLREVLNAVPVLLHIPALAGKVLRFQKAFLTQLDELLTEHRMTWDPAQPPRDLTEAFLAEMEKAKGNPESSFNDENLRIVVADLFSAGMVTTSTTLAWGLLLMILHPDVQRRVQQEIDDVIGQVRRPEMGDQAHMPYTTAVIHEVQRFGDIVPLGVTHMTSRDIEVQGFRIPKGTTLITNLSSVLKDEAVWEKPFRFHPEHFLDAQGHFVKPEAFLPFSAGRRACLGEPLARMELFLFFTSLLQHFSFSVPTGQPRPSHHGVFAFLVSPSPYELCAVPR
The target of a further series is Cytochrome P450 2C19 (Homo sapiens, UniProt P33261). Description: Cytochrome panel assay with activity outcomes. Panel member name: p450-cyp2c19 Compounds with AC50 equal or less than 10 uM are considered active. The class given is functional.
Sequence of Cytochrome P450 2C19 (P33261 whole entry): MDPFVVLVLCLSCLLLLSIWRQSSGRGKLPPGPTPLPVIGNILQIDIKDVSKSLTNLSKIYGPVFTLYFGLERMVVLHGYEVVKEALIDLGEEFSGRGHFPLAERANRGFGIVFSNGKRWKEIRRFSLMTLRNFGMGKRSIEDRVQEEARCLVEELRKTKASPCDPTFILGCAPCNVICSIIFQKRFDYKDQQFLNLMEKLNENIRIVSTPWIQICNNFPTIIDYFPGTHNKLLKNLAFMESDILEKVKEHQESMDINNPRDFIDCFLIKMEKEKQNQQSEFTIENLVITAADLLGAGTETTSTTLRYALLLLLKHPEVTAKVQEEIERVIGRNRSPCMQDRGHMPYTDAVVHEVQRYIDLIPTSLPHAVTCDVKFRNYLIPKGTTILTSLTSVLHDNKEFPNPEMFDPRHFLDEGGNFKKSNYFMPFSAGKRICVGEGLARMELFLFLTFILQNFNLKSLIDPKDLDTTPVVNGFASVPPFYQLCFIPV
Series [7] addresses Lysine-specific demethylase 4A (Homo sapiens, UniProt O75164). Put plainly: JMJD2A histone demethylase inhibitors, dose response, selectivity assay for GASC-1 inhibitor project, biochemical, DELFIA europium, cherry-picked samples (AID 488840).
For series [8], the target named is G-protein coupled receptor 35 (Homo sapiens, UniProt Q9HC97). Put plainly: SAR Analysis for the identification of Selective Antagonists of ERK1/2 Activity in GPR35-Overexpressing U2OS Cells. [Related pubchem assays: 2079, 2058 ]. The class given is functional, cell-based.
Series [9] addresses G-protein coupled receptor 55 (Homo sapiens, UniProt Q9Y2T6). Put plainly: GPR55 antagonists, SAR follow-up, counter-screen for GPR35 antagonist project, imaging, image-based (AID 2397). The class given is functional.
Series [10] has as its target T2, Dual specificity protein phosphatase 6 (Rattus norvegicus, UniProt Q64346).
T2 sequence (Q64346 whole entry): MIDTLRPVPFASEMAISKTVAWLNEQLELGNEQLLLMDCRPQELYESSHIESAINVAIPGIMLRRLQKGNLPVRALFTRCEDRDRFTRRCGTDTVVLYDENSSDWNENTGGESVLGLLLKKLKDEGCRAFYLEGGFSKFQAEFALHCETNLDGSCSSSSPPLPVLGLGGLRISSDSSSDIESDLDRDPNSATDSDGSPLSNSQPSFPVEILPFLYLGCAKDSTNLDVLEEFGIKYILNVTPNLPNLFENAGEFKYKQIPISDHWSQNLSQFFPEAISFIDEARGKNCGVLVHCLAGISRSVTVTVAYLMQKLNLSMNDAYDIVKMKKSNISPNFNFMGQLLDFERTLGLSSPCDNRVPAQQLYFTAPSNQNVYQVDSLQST

Series [11] addresses T2, Dual specificity protein phosphatase 6. The format is functional.
Series [12] deals with Tyrosine-protein phosphatase non-receptor type 7 (Homo sapiens, UniProt P35236). The class given is functional.
Series [13] has as its target Glyceraldehyde-3-phosphate dehydrogenase (Homo sapiens, UniProt P04406).
In the next series the target is Cytochrome P450 2C9 (Homo sapiens, UniProt P11712).
Sequence of Cytochrome P450 2C9 (P11712 whole entry): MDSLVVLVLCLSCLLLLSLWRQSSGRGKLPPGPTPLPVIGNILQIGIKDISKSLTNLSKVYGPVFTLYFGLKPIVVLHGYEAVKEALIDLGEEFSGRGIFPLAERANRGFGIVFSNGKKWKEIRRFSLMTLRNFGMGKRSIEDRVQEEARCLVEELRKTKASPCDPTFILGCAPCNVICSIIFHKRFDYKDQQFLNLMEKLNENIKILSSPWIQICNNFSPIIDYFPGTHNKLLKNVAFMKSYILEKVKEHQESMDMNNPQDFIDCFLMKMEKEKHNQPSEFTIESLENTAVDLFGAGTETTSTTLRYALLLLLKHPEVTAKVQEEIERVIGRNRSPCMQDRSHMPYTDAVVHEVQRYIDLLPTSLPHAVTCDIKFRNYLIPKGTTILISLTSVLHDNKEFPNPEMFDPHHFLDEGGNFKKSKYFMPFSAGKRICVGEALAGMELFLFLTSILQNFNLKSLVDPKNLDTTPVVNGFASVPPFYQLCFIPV
A short description of series [14]: Luminescence Cell-Based Dose Retest to Confirm Inhibitors of Cancer Stem Cells. [Related pubchem assays (depositor defined):AID2717, AID2721]. The class given is functional. The note with it: Homo sapiens.
Series [15] can be described thus: cytotoxicity in HMLE control line with eGFP shRNA, dose response, counter-screen for HMLE_sh_ECad selective toxicity project, cell-based, HMLE_sh_eGFP, luminescence (AID 463074).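 Note: HMLE human mammary epithelial cells expressing control shRNA against eGFP.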 The format is functional, Homo sapiens.

Sequence of Sphingosine 1-phosphate receptor 4 (O95977 whole entry): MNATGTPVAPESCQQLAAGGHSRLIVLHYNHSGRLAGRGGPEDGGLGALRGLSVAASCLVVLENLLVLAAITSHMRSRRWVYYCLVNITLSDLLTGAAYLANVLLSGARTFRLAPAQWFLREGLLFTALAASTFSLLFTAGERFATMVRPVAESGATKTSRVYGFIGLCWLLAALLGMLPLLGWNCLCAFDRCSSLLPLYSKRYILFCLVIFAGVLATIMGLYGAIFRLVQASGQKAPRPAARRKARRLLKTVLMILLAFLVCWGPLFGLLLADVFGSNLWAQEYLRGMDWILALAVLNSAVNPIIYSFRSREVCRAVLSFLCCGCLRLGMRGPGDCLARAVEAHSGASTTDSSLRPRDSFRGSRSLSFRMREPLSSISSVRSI
Sequence of Lysine-specific demethylase 4A (O75164 whole entry): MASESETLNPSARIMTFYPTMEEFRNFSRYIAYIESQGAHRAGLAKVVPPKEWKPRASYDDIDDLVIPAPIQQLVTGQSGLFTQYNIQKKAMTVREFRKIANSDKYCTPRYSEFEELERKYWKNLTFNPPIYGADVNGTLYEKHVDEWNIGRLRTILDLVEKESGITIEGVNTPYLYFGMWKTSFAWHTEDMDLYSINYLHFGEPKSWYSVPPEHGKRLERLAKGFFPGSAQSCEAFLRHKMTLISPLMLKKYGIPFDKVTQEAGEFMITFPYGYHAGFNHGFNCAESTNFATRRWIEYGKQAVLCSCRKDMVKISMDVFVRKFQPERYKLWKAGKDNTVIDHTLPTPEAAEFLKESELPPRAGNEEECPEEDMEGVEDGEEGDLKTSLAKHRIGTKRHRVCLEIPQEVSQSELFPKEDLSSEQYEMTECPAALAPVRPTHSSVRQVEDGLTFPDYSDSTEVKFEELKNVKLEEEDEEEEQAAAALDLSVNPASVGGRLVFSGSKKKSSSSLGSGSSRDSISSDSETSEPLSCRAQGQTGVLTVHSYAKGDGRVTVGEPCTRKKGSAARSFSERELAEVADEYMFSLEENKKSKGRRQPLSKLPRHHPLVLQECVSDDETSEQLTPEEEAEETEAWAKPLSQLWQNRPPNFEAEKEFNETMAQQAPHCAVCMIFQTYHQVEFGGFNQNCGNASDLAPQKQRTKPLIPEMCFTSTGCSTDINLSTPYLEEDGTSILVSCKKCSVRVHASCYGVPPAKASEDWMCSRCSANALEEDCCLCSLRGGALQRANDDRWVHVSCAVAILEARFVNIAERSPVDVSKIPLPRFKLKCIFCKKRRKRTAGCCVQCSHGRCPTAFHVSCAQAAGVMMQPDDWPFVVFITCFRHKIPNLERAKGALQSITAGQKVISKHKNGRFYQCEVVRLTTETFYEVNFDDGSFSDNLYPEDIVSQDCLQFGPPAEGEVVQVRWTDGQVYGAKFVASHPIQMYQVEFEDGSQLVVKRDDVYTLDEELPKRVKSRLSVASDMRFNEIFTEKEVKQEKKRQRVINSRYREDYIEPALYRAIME
Sequence of G-protein coupled receptor 55 (Q9Y2T6 whole entry): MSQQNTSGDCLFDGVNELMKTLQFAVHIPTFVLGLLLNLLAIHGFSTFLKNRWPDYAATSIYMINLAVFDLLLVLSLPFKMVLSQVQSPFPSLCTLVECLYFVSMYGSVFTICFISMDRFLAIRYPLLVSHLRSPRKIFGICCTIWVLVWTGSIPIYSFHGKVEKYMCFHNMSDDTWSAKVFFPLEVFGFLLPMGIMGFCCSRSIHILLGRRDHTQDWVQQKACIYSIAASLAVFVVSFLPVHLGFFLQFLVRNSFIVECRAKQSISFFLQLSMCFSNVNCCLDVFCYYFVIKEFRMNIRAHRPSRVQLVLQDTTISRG

With `Cc1ccc(OCCOc2ccc(Cl)cc2Cl)c([N+](=O)[O-])n1`, the EC50 in series [1] was > 50 µM (inactive); in [2], 0.529 µM (active); in series [3], > 49.8 µM (inactive); in [4], > 50 µM (inactive); in [5], > 50 µM (inactive); in series [6], > 50 µM (inactive).

As to `CC1=C(C(=O)O)N2C(=O)[C@@H](NC(=O)[C@@H](N)C3=CCC=CC3)[C@@H]2SC1`, the AC50 entry at Cytochrome P450 2D6 and at Cytochrome P450 2C19 was “inconclusive” throughout.

`CN(C(=O)c1ccc(NC(=O)Cc2ccc(NC(=O)C3CCN(C(=O)C4CCC4)CC3)cc2)cc1)C1CC1`: the AC50 in [7] is > 60 µM (inactive).

As for `O=C(Nc1ccc2nc(SCc3ccccc3)sc2c1)c1ccccc1C(=O)N1CCOCC1`, the IC50 was 4.58 µM (active) in series [8] and 12.3 µM (inactive) in series [9].

For `CCC(CC)c1nnc(NC(=O)Cc2cccs2)s1`, the IC50 in series [10] is > 100 µM (inactive); in series [11], > 100 µM (inactive); in [12], 88 µM (active); in series [13], 99.7 µM (active).

Regarding `Cc1nn(-c2ccc(F)cc2)c(Cl)c1/C=C(\CCC(=O)O)c1nc2ccccc2s1`, the AC50 at Cytochrome P450 2C9 was 39.8 µM (inconclusive); in [14], 18.7 µM (active); in series [15], 23.5 µM (active).
